In PubChem BioAssay (NCI):
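These data come from cells grown in 96-well plates and exposed to compound for 48 hours at five concentrations. The concentration for 50% growth inhibition is given as GI50. TGI denotes the concentration required for complete inhibition of growth.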

Key:
Test in all cases: NCI anticancer screen, dose series, 48 h
RXF 393 renal = system: RXF 393 renal
IGROV1 ovarian = system: IGROV1 ovarian
MCF7 breast = system: MCF7 breast
LOX IMVI melanoma = system: LOX IMVI melanoma
HT29 colon = system: HT29 colon
HCT-116 colon = system: HCT-116 colon
MALME-3M melanoma = system: MALME-3M melanoma
NCI-H460 lung = system: NCI-H460 lung
TK-10 renal = system: TK-10 renal
UACC-62 melanoma = system: UACC-62 melanoma
OVCAR-3 ovarian = system: OVCAR-3 ovarian
MOLT-4 leukemia = system: MOLT-4 leukemia
HOP-92 NSCLC = system: HOP-92 NSCLC
SNB-19 CNS = system: SNB-19 CNS
T-47D breast = system: T-47D breast
HCT-15 colon = system: HCT-15 colon
RPMI-8226 leukemia = system: RPMI-8226 leukemia
SF-295 CNS = system: SF-295 CNS
MDA-MB-435 = system: MDA-MB-435
PC-3 prostate = system: PC-3 prostate
NCI/ADR-RES ovarian = system: NCI/ADR-RES ovarian
SF-539 CNS = system: SF-539 CNS
EKVX NSCLC = system: EKVX NSCLC
SW-620 colon = system: SW-620 colon
SN12C renal = system: SN12C renal
A498 renal = system: A498 renal
786-0 renal = system: 786-0 renal
UACC-257 melanoma = system: UACC-257 melanoma
ACHN renal = system: ACHN renal
A549 NSCLC = system: A549 NSCLC
OVCAR-5 ovarian = system: OVCAR-5 ovarian
HCC-2998 colon = system: HCC-2998 colon
KM12 colon = system: KM12 colon
MDA-MB-231 breast = system: MDA-MB-231 breast
NCI-H23 lung = system: NCI-H23 lung
DU-145 prostate = system: DU-145 prostate
OVCAR-8 ovarian = system: OVCAR-8 ovarian
SK-OV-3 ovarian = system: SK-OV-3 ovarian
HS 578T breast = system: HS 578T breast
HOP-62 NSCLC = system: HOP-62 NSCLC
NCI-H226 lung = system: NCI-H226 lung
OVCAR-4 ovarian = system: OVCAR-4 ovarian
SK-MEL-5 melanoma = system: SK-MEL-5 melanoma
SK-MEL-2 melanoma = system: SK-MEL-2 melanoma
U251 CNS = system: U251 CNS
UO-31 renal = system: UO-31 renal
CAKI-1 renal = system: CAKI-1 renal
CCRF-CEM leukemia = system: CCRF-CEM leukemia
K-562 leukemia = system: K-562 leukemia
BT-549 breast = system: BT-549 breast
SF-268 CNS = system: SF-268 CNS
SR leukemia = system: SR leukemia
M14 melanoma = system: M14 melanoma
SNB-75 CNS = system: SNB-75 CNS
SK-MEL-28 melanoma = system: SK-MEL-28 melanoma
COLO 205 colon = system: COLO 205 colon
HL-60(TB) leukemia = system: HL-60(TB) leukemia

With `COc1ccc(C2(c3ccc(OC)cc3)OC(=O)c3cccc4cccc2c34)cc1` the TGI (RXF 393 renal) was > 100 µM, the TGI (IGROV1 ovarian) was > 100 µM and the TGI (MCF7 breast) was > 100 µM. For the same compound, the TGI (LOX IMVI melanoma) was > 100 µM, the TGI (HT29 colon) was 5.98 µM and the TGI (HCT-116 colon) was > 100 µM. The TGI (MALME-3M melanoma) was > 100 µM, the TGI (NCI-H460 lung) was > 100 µM and the TGI (TK-10 renal) was 96.4 µM. For the same compound, the TGI (UACC-62 melanoma) was > 100 µM, the TGI (OVCAR-3 ovarian) was > 100 µM and the TGI (MOLT-4 leukemia) was > 100 µM. The TGI (HOP-92 NSCLC) was > 100 µM, the TGI (SNB-19 CNS) was > 100 µM and the TGI (T-47D breast) was 80.8 µM. The TGI (HCT-15 colon) was > 100 µM, the TGI (RPMI-8226 leukemia) was 8.8 µM and the TGI (SF-295 CNS) was > 100 µM. For the same compound, the TGI (MDA-MB-435) was > 100 µM, the TGI (PC-3 prostate) was 6.47 µM and the TGI (NCI/ADR-RES ovarian) was 7.55 µM. The TGI (SF-539 CNS) was 9.63 µM, the TGI (EKVX NSCLC) was 29 µM and the TGI (SW-620 colon) was > 100 µM. For the same compound, the TGI (SN12C renal) was > 100 µM, the TGI (A498 renal) was > 100 µM and the TGI (786-0 renal) was > 100 µM. For the same compound, the TGI (UACC-257 melanoma) was > 100 µM, the TGI (ACHN renal) was > 100 µM and the TGI (A549 NSCLC) was > 100 µM. For the same compound, the TGI (OVCAR-5 ovarian) was > 100 µM, the TGI (HCC-2998 colon) was 37.5 µM and the TGI (KM12 colon) was > 100 µM. The TGI (MDA-MB-231 breast) was > 100 µM, the TGI (NCI-H23 lung) was > 100 µM and the TGI (DU-145 prostate) was > 100 µM. For the same compound, the TGI (OVCAR-8 ovarian) was > 100 µM, the TGI (SK-OV-3 ovarian) was > 100 µM and the TGI (HS 578T breast) was 97.4 µM. For the same compound, the TGI (HOP-62 NSCLC) was > 100 µM, the TGI (NCI-H226 lung) was > 100 µM and the TGI (OVCAR-4 ovarian) was > 100 µM. The TGI (SK-MEL-5 melanoma) was > 100 µM, the TGI (SK-MEL-2 melanoma) was > 100 µM and the TGI (U251 CNS) was > 100 µM. The TGI (UO-31 renal) was > 100 µM, the TGI (CAKI-1 renal) was 9.87 µM and the TGI (CCRF-CEM leukemia) was 7.71 µM. The TGI (K-562 leukemia) was > 100 µM, the TGI (BT-549 breast) was > 100 µM and the TGI (SF-268 CNS) was > 100 µM. The TGI (SR leukemia) was 44.8 µM and the TGI (M14 melanoma) was > 100 µM.

Compound `CCCCCCCCCCCCn1c(C)nc2ccccc21` has a GI50 (IGROV1 ovarian) of 14.7 µM, a TGI (IGROV1 ovarian) of 28.3 µM and a GI50 (MCF7 breast) of 5.15 µM. The TGI (MCF7 breast) was 23.3 µM, the GI50 (LOX IMVI melanoma) was 3.72 µM and the TGI (LOX IMVI melanoma) was 20.5 µM. It also gave a GI50 (HT29 colon) of 11.6 µM, a TGI (HT29 colon) of 23.7 µM and a GI50 (HCT-116 colon) of 0.712 µM. It also gave a TGI (HCT-116 colon) of 13 µM, a GI50 (MALME-3M melanoma) of 16.2 µM and a TGI (MALME-3M melanoma) of 33.6 µM. The GI50 (NCI-H460 lung) was 10.5 µM, the TGI (NCI-H460 lung) was 24.3 µM and the GI50 (TK-10 renal) was 11.2 µM. The TGI (TK-10 renal) was 25.5 µM, the GI50 (UACC-62 melanoma) was 13.1 µM and the TGI (UACC-62 melanoma) was 26.9 µM. The GI50 (OVCAR-3 ovarian) was 14.7 µM, the TGI (OVCAR-3 ovarian) was 30.2 µM and the GI50 (MOLT-4 leukemia) was 10.2 µM. For the same compound, the TGI (MOLT-4 leukemia) was 23.5 µM, the GI50 (HOP-92 NSCLC) was 11 µM and the TGI (HOP-92 NSCLC) was 23.9 µM. It also gave a GI50 (SNB-19 CNS) of 13.5 µM, a TGI (SNB-19 CNS) of 26.3 µM and a GI50 (T-47D breast) of 0.325 µM. For the same compound, the TGI (T-47D breast) was 19.1 µM, the GI50 (HCT-15 colon) was 12.3 µM and the TGI (HCT-15 colon) was 27.4 µM. For the same compound, the GI50 (RPMI-8226 leukemia) was 0.614 µM, the TGI (RPMI-8226 leukemia) was 10.3 µM and the GI50 (SF-295 CNS) was 8.87 µM. It also gave a TGI (SF-295 CNS) of 26.6 µM, a GI50 (MDA-MB-435) of 12.8 µM and a TGI (MDA-MB-435) of 28.8 µM. For the same compound, the GI50 (PC-3 prostate) was 2.47 µM, the TGI (PC-3 prostate) was 15.8 µM and the GI50 (NCI/ADR-RES ovarian) was 2.55 µM. It also gave a TGI (NCI/ADR-RES ovarian) of 12.9 µM, a GI50 (SF-539 CNS) of 13.7 µM and a TGI (SF-539 CNS) of 27 µM. The GI50 (SNB-75 CNS) was 16.2 µM, the TGI (SNB-75 CNS) was 30.3 µM and the GI50 (EKVX NSCLC) was 1.72 µM. The TGI (EKVX NSCLC) was 19.3 µM, the GI50 (SW-620 colon) was 15.4 µM and the TGI (SW-620 colon) was 30.7 µM. It also gave a GI50 (SN12C renal) of 14.4 µM, a TGI (SN12C renal) of 31.1 µM and a GI50 (A498 renal) of 12.4 µM. It also gave a TGI (A498 renal) of 25.5 µM, a GI50 (786-0 renal) of 11.5 µM and a TGI (786-0 renal) of 24 µM. For the same compound, the GI50 (ACHN renal) was 13.2 µM, the TGI (ACHN renal) was 26.5 µM and the GI50 (A549 NSCLC) was 0.4 µM. It also gave a TGI (A549 NSCLC) of 20.7 µM, a GI50 (OVCAR-5 ovarian) of 4.78 µM and a TGI (OVCAR-5 ovarian) of 17.6 µM. The GI50 (HCC-2998 colon) was 2.6 µM, the TGI (HCC-2998 colon) was 18 µM and the GI50 (KM12 colon) was 14.3 µM. For the same compound, the TGI (KM12 colon) was 29 µM, the GI50 (MDA-MB-231 breast) was 15.3 µM and the TGI (MDA-MB-231 breast) was 34.8 µM. It also gave a GI50 (NCI-H23 lung) of 0.49 µM, a TGI (NCI-H23 lung) of 11.5 µM and a GI50 (DU-145 prostate) of 17.2 µM. For the same compound, the TGI (DU-145 prostate) was 35.4 µM, the GI50 (SK-OV-3 ovarian) was 13.6 µM and the TGI (SK-OV-3 ovarian) was 26.5 µM. The GI50 (HS 578T breast) was 27.7 µM, the TGI (HS 578T breast) was 48.3 µM and the GI50 (HOP-62 NSCLC) was 12.4 µM. For the same compound, the TGI (HOP-62 NSCLC) was 25.5 µM, the GI50 (NCI-H226 lung) was 12.7 µM and the TGI (NCI-H226 lung) was 31.7 µM. It also gave a GI50 (OVCAR-4 ovarian) of 12.7 µM, a TGI (OVCAR-4 ovarian) of 25.6 µM and a GI50 (SK-MEL-5 melanoma) of 0.984 µM. It also gave a TGI (SK-MEL-5 melanoma) of 18.2 µM, a GI50 (U251 CNS) of 11 µM and a TGI (U251 CNS) of 24.9 µM. The GI50 (UO-31 renal) was 7.58 µM, the TGI (UO-31 renal) was 20.6 µM and the GI50 (CAKI-1 renal) was 14 µM. The TGI (CAKI-1 renal) was 31.2 µM, the GI50 (SK-MEL-28 melanoma) was 19.4 µM and the TGI (SK-MEL-28 melanoma) was 34.5 µM. The GI50 (COLO 205 colon) was 13.2 µM, the TGI (COLO 205 colon) was 27.4 µM and the GI50 (CCRF-CEM leukemia) was 2.79 µM. For the same compound, the TGI (CCRF-CEM leukemia) was 21.2 µM, the GI50 (K-562 leukemia) was 1.11 µM and the TGI (K-562 leukemia) was 16.4 µM. It also gave a GI50 (BT-549 breast) of 12 µM, a TGI (BT-549 breast) of 28.7 µM and a GI50 (SF-268 CNS) of 19.6 µM. It also gave a TGI (SF-268 CNS) of 41.1 µM, a GI50 (HL-60(TB) leukemia) of 2.54 µM and a TGI (HL-60(TB) leukemia) of 18.5 µM. The GI50 (M14 melanoma) was 13.7 µM and the TGI (M14 melanoma) was 26.6 µM.
